In patent publication US4758555A, “Method for treating convulsions and epilepsy with organic copper compounds” (priority 1986, dated 1988):

What was measured:
Assay type in all cases: in vivo, male Carworth Farms #1 mice or Sprague-Dawley rats
[1] = Maximal Electroshock Seizure Test; conditions: for ED50 for inhibition of seizures, MES (Phase II) / Lowest effective dose, MES (Phase I): Table X; for ED50 for inhibition of seizures, MES (Phase II): at time of peak activity; for Lowest active dose, MES (Phase I): Table V
[2] = Subcutaneous Pentylenetetrazol (Metrazol) Seizure Threshold Test; conditions: for ED50 for inhibition of seizures, Metrazol (Phase II) / Lowest effective dose, Metrazol (Phase I): Table X; for ED50 for inhibition of seizures, Metrazol (Phase II): at time of peak activity; for Lowest active dose, Metrazol (Phase I): Table V
[3] = Anticonvulsant activity, both or unspecified seizure models; conditions: for Time of peak activity (Phase II): Table X, IP, challenge time; for Anticonvulsant activity (in words): running text

Molecule	ED50 for inhibition of seizures, MES (Phase II) ([1]; IP) [mg/kg]	Lowest effective dose, MES (Phase I) ([1]; IP, challenge time 30 min)	Lowest effective dose, MES (Phase I) ([1]; IP, challenge time 4 hrs)	Lowest effective dose, MES (Phase I) ([1]; SC, challenge time 30 min)	Lowest effective dose, MES (Phase I) ([1]; SC, challenge time 4 hrs)	ED50 for inhibition of seizures, Metrazol (Phase II) ([2]; IP) [mg/kg]	Lowest effective dose, Metrazol (Phase I) ([2]; IP, challenge time 30 min)	Lowest effective dose, Metrazol (Phase I) ([2]; IP, challenge time 4 hrs)	Lowest effective dose, Metrazol (Phase I) ([2]; SC, challenge time 30 min)	Lowest effective dose, Metrazol (Phase I) ([2]; SC, challenge time 4 hrs)	Time of peak activity (Phase II) [3] [min]	Potency or effectiveness relative to a comparator (in words) ([3]; in vivo)	Anticonvulsant activity (in words) [3]	Onset and duration of anticonvulsant action (in words) [3]	Lowest active dose, MES (Phase I) ([1]; IP, challenge time 30 min)	Lowest active dose, MES (Phase I) ([1]; IP, challenge time 4 hrs)	Lowest active dose, Metrazol (Phase I) ([2]; IP, challenge time 30 min)	Lowest active dose, Metrazol (Phase I) ([2]; IP, challenge time 4 hrs)
O=C1CN=C(c2ccccc2Cl)c2cc([N+](=O)[O-])ccc2N1.O=C1CN=C(c2ccccc2Cl)c2cc([N+](=O)[O-])ccc2N1.[Cl-].[Cl-].[Cu+2] [Cu(II)(Clonazepam)2 (Cl)2]	25	10 milligrams per kilogram of bod	I	1 milligrams per kilogram of bod	30 milligrams per kilogram of bod	0.05	1 milligrams per kilogram of bod	1 milligrams per kilogram of bod	1 milligrams per kilogram of bod	1 milligrams per kilogram of bod	30	four times as effective as the parent drug	very potent anticonvulsant	–	–	–	–	–
Cu(II)oxazepam	–	10 milligrams per kilogram of bod	I	–	–	–	1 milligrams per kilogram of bod	10 milligrams per kilogram of bod	–	–	–	–	protected against both types of seizure	more prolonged in its action against Metrazol induced seizures	–	–	–	–
Cu(II)α-methyl-α-phenylsuccinimide(H2 O)0.75	–	100 milligrams per kilogram of bod	I	30 milligrams per kilogram of bod	100 milligrams per kilogram of bod	–	100 milligrams per kilogram of bod	100 milligrams per kilogram of bod	30 milligrams per kilogram of bod	600 milligrams per kilogram of bod	–	–	effective in preventing both types of seizure with rapid onsets of action and prolonged durations of action following subcutaneous and intraperitoneal administration	–	–	–	–	–
CCC1(c2ccccc2)C(=O)[N-]C(=O)NC1=O.CCC1(c2ccccc2)C(=O)[N-]C(=O)NC1=O.[Cu+2].c1ccncc1.c1ccncc1 [Cu(II)(Phenobarbital)2 (pyridine)2]	17	100 milligrams per kilogram of bod	100 milligrams per kilogram of bod	I	30 milligrams per kilogram of bod	9	30 milligrams per kilogram of bod	30 milligrams per kilogram of bod	I	30 milligrams per kilogram of bod	120	–	–	–	–	–	–	–
Cc1ncc(CO)c(C=N[C@@H](Cc2c[nH]c3ccccc23)C(=O)[O-])c1[O-].O.O.[Cu+2] [Cu(II)Pyridoxylidene-L-tryptophanate(H2 O)2]	–	–	–	–	–	–	–	–	–	–	–	–	more effective but only protected against the Metrazol-induced seizure	–	I	I	30 mg/kg of body weight	30 mg/kg of body weight
